Results: US20120329787A1, “FUNGICIDAL PYRANONES AND OXAZINONES” (E.I. DU PONT DE NEMOURS AND COMPANY, priority 2011, published 2012)
Marks after values point to notes of the source that are not given here.

How the values were obtained:
Assay type in all cases: in vivo
[1] = system: Botrytis cinerea; assay: Test A: tomato Botrytis, spray on tomato seedlings the day before inoculation; conditions: for pest or weed control at 200 ppm: Botrytis cinerea, 120 h, read-out: Test A rating (100 = 100% disease control, 0 = no disease control)
Source text: General protocol for preparing test suspensions for Tests A-I: the test compounds were first dissolved in acetone in an amount equal to 3% of the final volume and then suspended at the desired concentration (in ppm) in acetone and purified water (50/50 mix by volume) containing 250 ppm of the surfactant Trem® 014 (polyhydric alcohol esters). The resulting test suspensions were then used in Tests A-I. Spraying a 200 ppm test suspension to the point of run-off on the test plants was the equivalent of a rate of 500 g/ha. […] (An asterisk “*” next to the rating value indicates a 40 ppm test suspension was used.) The test suspension was sprayed to the point of run-off on tomato seedlings. The following day, the seedlings were inoculated with a spore suspension of Botrytis cinerea (the causal agent of tomato Botrytis) and incubated in a saturated atmosphere at 20° C. for 48 h, and then moved to a growth chamber at 24° C. for 3 additional days, after which time visual disease ratings were made. […] A dash (-) indicates no test results. All results are for 200 ppm except where followed by an asterisk “*”, which indicates a 40 ppm.

[2] = system: Alternaria solani; assay: Test B: tomato early blight, spray on tomato seedlings the day before inoculation; conditions: for pest or weed control at 200 ppm: Alternaria solani, 168 h, read-out: Test B rating (100 = 100% disease control, 0 = no disease control)
Source text: General protocol for preparing test suspensions for Tests A-I: the test compounds were first dissolved in acetone in an amount equal to 3% of the final volume and then suspended at the desired concentration (in ppm) in acetone and purified water (50/50 mix by volume) containing 250 ppm of the surfactant Trem® 014 (polyhydric alcohol esters). The resulting test suspensions were then used in Tests A-I. Spraying a 200 ppm test suspension to the point of run-off on the test plants was the equivalent of a rate of 500 g/ha. […] (An asterisk “*” next to the rating value indicates a 40 ppm test suspension was used.) The test suspension was sprayed to the point of run-off on tomato seedlings. The following day, the seedlings were inoculated with a spore suspension of Alternaria solani (the causal agent of tomato early blight) and incubated in a saturated atmosphere at 27° C. for 48 h, and then moved to a growth chamber at 20° C. for 5 days, after which time visual disease ratings were made. […] A dash (-) indicates no test results. All results are for 200 ppm except where followed by an asterisk “*”, which indicates a 40 ppm.

[3] = system: Septoria nodorum; assay: Test E: Septoria glume blotch, spray on wheat seedlings the day before inoculation
Source text: General protocol for preparing test suspensions for Tests A-I: the test compounds were first dissolved in acetone in an amount equal to 3% of the final volume and then suspended at the desired concentration (in ppm) in acetone and purified water (50/50 mix by volume) containing 250 ppm of the surfactant Trem® 014 (polyhydric alcohol esters). The resulting test suspensions were then used in Tests A-I. Spraying a 200 ppm test suspension to the point of run-off on the test plants was the equivalent of a rate of 500 g/ha. […] (An asterisk “*” next to the rating value indicates a 40 ppm test suspension was used.) The test suspension was sprayed to the point of run-off on wheat seedlings. […] A dash (-) indicates no test results. All results are for 200 ppm except where followed by an asterisk “*”, which indicates a 40 ppm.

[4] = system: Septoria tritici; assay: Test F: wheat leaf blotch, spray on wheat seedlings the day before inoculation; conditions: for pest or weed control at 200 ppm: Zymoseptoria tritici, 504 h, read-out: Test F rating (100 = 100% disease control, 0 = no disease control)
Source text: General protocol for preparing test suspensions for Tests A-I: the test compounds were first dissolved in acetone in an amount equal to 3% of the final volume and then suspended at the desired concentration (in ppm) in acetone and purified water (50/50 mix by volume) containing 250 ppm of the surfactant Trem® 014 (polyhydric alcohol esters). The resulting test suspensions were then used in Tests A-I. Spraying a 200 ppm test suspension to the point of run-off on the test plants was the equivalent of a rate of 500 g/ha. […] (An asterisk “*” next to the rating value indicates a 40 ppm test suspension was used.) The test suspension was sprayed to the point of run-off on wheat seedlings. The following day, the seedlings were inoculated with a spore suspension of Septoria tritici (the causal agent of wheat leaf blotch) and incubated in a saturated atmosphere at 24° C. for 48 h, and then the seedlings were moved to a growth chamber at 20° C. for 19 additional days, after which time visual disease ratings were made. […] A dash (-) indicates no test results. All results are for 200 ppm except where followed by an asterisk “*”, which indicates a 40 ppm.

[5] = system: Puccinia recondita f. sp. tritici; assay: Test G: wheat leaf rust, spray on wheat seedlings after inoculation (curative); conditions: sprayed after inoculation; for pest or weed control at 200 ppm: Puccinia recondita, 96 h, read-out: Test G rating (100 = 100% disease control, 0 = no disease control)
Source text: General protocol for preparing test suspensions for Tests A-I: the test compounds were first dissolved in acetone in an amount equal to 3% of the final volume and then suspended at the desired concentration (in ppm) in acetone and purified water (50/50 mix by volume) containing 250 ppm of the surfactant Trem® 014 (polyhydric alcohol esters). The resulting test suspensions were then used in Tests A-I. Spraying a 200 ppm test suspension to the point of run-off on the test plants was the equivalent of a rate of 500 g/ha. […] (An asterisk “*” next to the rating value indicates a 40 ppm test suspension was used.) Wheat seedlings were inoculated with a spore suspension of Puccinia recondita f. sp. tritici (the causal agent of wheat leaf rust) and incubated in a saturated atmosphere at 20° C. for 24 h, and then moved to a growth chamber at 20° C. for 2 days. At the end of this time, the test suspension was sprayed to the point of run-off, and then the seedlings were moved to a growth chamber at 20° C. for 4 days after which time visual disease ratings were made. […] A dash (-) indicates no test results. All results are for 200 ppm except where followed by an asterisk “*”, which indicates a 40 ppm.

[6] = system: Puccinia recondita f. sp. tritici; assay: Test H: wheat leaf rust, spray on wheat seedlings the day before inoculation; conditions: sprayed before inoculation; for pest or weed control at 200 ppm: Puccinia recondita, 168 h, read-out: Test H rating (100 = 100% disease control, 0 = no disease control)
Source text: General protocol for preparing test suspensions for Tests A-I: the test compounds were first dissolved in acetone in an amount equal to 3% of the final volume and then suspended at the desired concentration (in ppm) in acetone and purified water (50/50 mix by volume) containing 250 ppm of the surfactant Trem® 014 (polyhydric alcohol esters). The resulting test suspensions were then used in Tests A-I. Spraying a 200 ppm test suspension to the point of run-off on the test plants was the equivalent of a rate of 500 g/ha. […] (An asterisk “*” next to the rating value indicates a 40 ppm test suspension was used.) The test suspension was sprayed to the point of run-off on wheat seedlings. The following day, the seedlings were inoculated with a spore suspension of Puccinia recondita f. sp. tritici (the causal agent of wheat leaf rust) and incubated in a saturated atmosphere at 20° C. for 24 h, and then moved to a growth chamber at 20° C. for 6 days, after which time visual disease ratings were made Results for Tests A-I are given in Table A. […] A dash (-) indicates no test results. All results are for 200 ppm except where followed by an asterisk “*”, which indicates a 40 ppm.

[7] = system: Erysiphe graminis f. sp. tritici; assay: Test I: wheat powdery mildew, spray on wheat seedlings the day before inoculation; conditions: for pest or weed control at 200 ppm: Blumeria graminis, 168 h, read-out: Test I rating (100 = 100% disease control, 0 = no disease control)
Source text: General protocol for preparing test suspensions for Tests A-I: the test compounds were first dissolved in acetone in an amount equal to 3% of the final volume and then suspended at the desired concentration (in ppm) in acetone and purified water (50/50 mix by volume) containing 250 ppm of the surfactant Trem® 014 (polyhydric alcohol esters). The resulting test suspensions were then used in Tests A-I. Spraying a 200 ppm test suspension to the point of run-off on the test plants was the equivalent of a rate of 500 g/ha. […] (An asterisk “*” next to the rating value indicates a 40 ppm test suspension was used.) The test suspension was sprayed to the point of run-off on wheat seedlings. The following day, the seedlings were inoculated with a spore dust of Erysiphe graminis f. sp. tritici, (the causal agent of wheat powdery mildew) and incubated in a growth chamber at 20° C. for 7 days, after which time visual disease ratings were made. […] A dash (-) indicates no test results. All results are for 200 ppm except where followed by an asterisk “*”, which indicates a 40 ppm.

[8] = 40 ppm test suspension (asterisk)

| Compound | Test I rating (100 = 100% disease control, 0 = no disease control) ([7]; 200 ppm test suspension) | Test A rating (100 = 100% disease control, 0 = no disease control) [1, 8] | Test B rating (100 = 100% disease control, 0 = no disease control) [2, 8] | Test E rating (100 = 100% disease control, 0 = no disease control) [3, 8] | Test F rating (100 = 100% disease control, 0 = no disease control) [4, 8] | Test G rating (100 = 100% disease control, 0 = no disease control) [5, 8] | Test H rating (100 = 100% disease control, 0 = no disease control) [6, 8] | also measured |
| --- | --- | --- | --- | --- | --- | --- | --- | --- |
| COc1cccc(-c2c(-c3ccc(F)cc3F)c(C)oc(=O)c2-c2ccccc2)c1 [Compound 29] | 55% | – | – | – | – | – | – | Test A rating (100 = 100% disease control, 0 = no disease control) ([1]; 200 ppm test suspension): 99%; Test B rating (100 = 100% disease control, 0 = no disease control) ([2]; 200 ppm test suspension): 93%; Test E rating (100 = 100% disease control, 0 = no disease control) ([3]; 200 ppm test suspension): 64%; Test F rating (100 = 100% disease control, 0 = no disease control) ([4]; 200 ppm test suspension): 99%; Test G rating (100 = 100% disease control, 0 = no disease control) ([5]; 200 ppm test suspension): 32%; Test H rating (100 = 100% disease control, 0 = no disease control) ([6]; 200 ppm test suspension): 100% |
| Cc1oc(=O)c(-c2ccccc2)c(-c2ccccc2Cl)c1-c1ccccc1F [Compound 30] | – | 99* % | 0* % | 0* % | 94* % | 0* % | 91* % | Test I rating (100 = 100% disease control, 0 = no disease control) [7, 8]: 0* % |
| Cc1oc(=O)c(-c2ccccc2)c(-c2ccccc2Cl)c1-c1ccc(F)cc1F [Compound 31] | 0% | 100* % | 0* % | 0* % | 98* % | 96* % | 99* % | – |
| COc1cc(OC)cc(-c2c(-c3ccc(F)cc3F)c(C)oc(=O)c2-c2ccccc2F)c1 [Compound 33, 5-(2,4-difluorophenyl)-4-(3,5-dimethoxyphenyl)-3-(2-fluorophenyl)-6-methyl-2H-pyran-2-one] | – | – | – | – | – | – | – | pest or weed control at 200 ppm ([1]; 200 ppm test suspension): 99%; pest or weed control at 200 ppm ([2]; 200 ppm test suspension): 100%; pest or weed control at 40 ppm ([3]; Parastagonospora nodorum, 264 h, 40 ppm test suspension (asterisk), read-out: Test E rating (100 = 100% disease control, 0 = no disease control)): 99%; pest or weed control at 200 ppm ([4]; 200 ppm test suspension): 98%; pest or weed control at 200 ppm ([5]; 200 ppm test suspension): 99%; pest or weed control at 200 ppm ([6]; 200 ppm test suspension): 100%; pest or weed control at 200 ppm ([7]; 200 ppm test suspension): 76% |
| COc1cccc(-c2c(-c3ccc(F)cc3F)c(C)oc(=O)c2-c2ccccc2F)c1 [Compound 34] | 90% | – | – | – | – | – | – | Test A rating (100 = 100% disease control, 0 = no disease control) ([1]; 200 ppm test suspension): 100%; Test B rating (100 = 100% disease control, 0 = no disease control) ([2]; 200 ppm test suspension): 99%; Test E rating (100 = 100% disease control, 0 = no disease control) ([3]; 200 ppm test suspension): 99%; Test F rating (100 = 100% disease control, 0 = no disease control) ([4]; 200 ppm test suspension): 99%; Test G rating (100 = 100% disease control, 0 = no disease control) ([5]; 200 ppm test suspension): 95%; Test H rating (100 = 100% disease control, 0 = no disease control) ([6]; 200 ppm test suspension): 100% |
| Cc1oc(=O)c(-c2ccccc2F)c(-c2ccccc2Cl)c1-c1ccc(F)cc1F [Compound 35] | 97% | 100* % | 68* % | 0* % | 99* % | 99* % | 0* % | – |
| COc1cc(OC)cc(-c2c(-c3c(F)cc(OC)cc3F)c(C)oc(=O)c2-c2ccccc2F)c1 [Compound 39] | 79% | 100* % | 100* % | 100* % | 100* % | 82* % | 100* % | – |
| Cc1oc(=O)c(C)c(-c2ccc(F)cc2F)c1Br [Compound 41, 5-bromo-4-(2,4-difluorophenyl)-3,6-dimethyl-2H-pyran-2-one] | – | – | – | – | – | – | – | pest or weed control at 200 ppm ([1]; 200 ppm test suspension): 67%; pest or weed control at 200 ppm ([2]; 200 ppm test suspension): 0%; pest or weed control at 200 ppm ([3]; Parastagonospora nodorum, 264 h, 200 ppm test suspension, read-out: Test E rating (100 = 100% disease control, 0 = no disease control)): 0%; pest or weed control at 200 ppm ([4]; 200 ppm test suspension): 0%; pest or weed control at 200 ppm ([5]; 200 ppm test suspension): 0%; pest or weed control at 200 ppm ([6]; 200 ppm test suspension): 0%; pest or weed control at 200 ppm ([7]; 200 ppm test suspension): 0% |
